Converted amounts (≈) assume the structure as drawn.
Tests used:
Assay in all cases: In vitro antibacterial activity, MIC by agar double dilution method
Type in all cases: cell-based
[1] = test system: Staphylococcus epidermidis sensitive strains (5 strains); conditions: clinical isolates
Description: (§1) Experimental method: The agar double dilution method (Antimicrob. Agents and Chemother, 40, 1996, 720-726) was used to determine the minimum inhibitory concentration (MIC) of the series of compounds of the invention and the positive control drug linezolid for the test strains. The multipoint inoculation system (Denley A400) was employed to inoculate the bacteria on the agar plate surface with different concentrations of drugs; inoculation amount on each point was about 10^6 CFU/mL. The plates were incubated at 35° C. for 16 hrs before the results were observed. The lowest drug concentration contained in the Petri dish without bacterial growth was used as the minimum inhibitory concentration (MIC value) of the drug fir that strain.
(§2) Test strains: All the test strains were clinically isolated pathogens which were collected from the Nanjing region, and they were re-identified by routine methods before use. 31 strains of the clinically isolated pathogens were chosen, including 6 strains of Enterococcus, 5 Staphylococcus aureus sensitive strains; 5 Staphylococcus epidermidis sensitive strains; 6 Staphylococcus aureus resistant strains; 5 Staphylococcus epidermidis resistant strains; and 4 Streptococcus pneumoniae resistant strains.
(§3) Compounds to be tested were first added 2 ml of DMSO to help them fully dissolved, then added sterile double distilled water to the desired concentration; to all the Petri dish with added drug liquid were added 20 mL MIT medium which was heat-melted to be liquid-like, to make the final drug concentration in the Petri dish to be 64, 32, 16, 8, 4, 2, 1, 0.5, 0.25, 0.125, 0.0625, and 0.031 μg/mL.
(§4) The positive control group was LZ (linezolid, brand name Zyvox, approved by the FDA in 2000 to be firstly sold in the United States, which is the first and also the only one of oxazolidinone antibacterial drugs allowed to enter clinical application).

[2] = test system: Staphylococcus aureus resistant strains (6 strains); conditions: clinical isolates
Description: as §1, §2, §3, §4

[3] = test system: Staphylococcus epidermidis resistant strains (5 strains); conditions: clinical isolates
Description: as §1, §2, §3, §4

[4] = test system: Enterococcus (6 strains); conditions: clinical isolates, 35° C. 16 hrs
Description: as §1, §2, §3, §4

[5] = test system: Staphylococcus aureus sensitive strains (5 strains); conditions: clinical isolates
Description: as §1, §2, §3, §4

[6] = test system: Streptococcus pneumoniae resistant strains (4 strains); conditions: clinical isolates
Description: as §1, §2, §3, §4

O=C1O[C@@H](CO)[C@@H]2COc3cc(-c4ccc(C(O)C5CC5)nc4)ccc3N12 (stereo partly drawn) [Compound 6, (3R,3aS)-7-(6-(cyclopropyl(hydroxyl)methyl)pyridin-3-yl)-3-(hydroxyl-methyl)-3a,4-dihydrobenzo[b]oxazolo[3,4-d][1,4]oxazin-1(3H)-one]
MIC [1]: 0.5 to 1 µg/mL (≈ 1.36 to 2.71 µM) | MIC [2]: 1 to 2 µg/mL (≈ 2.71 to 5.43 µM) | MIC [3]: 1 µg/mL (≈ 2.71 µM) | MIC [4]: 2 µg/mL (≈ 5.43 µM) | MIC [5]: 1 µg/mL (≈ 2.71 µM) | MIC [6]: 1 to 2 µg/mL (≈ 2.71 to 5.43 µM)

CC(C)(O)c1ccc(-c2ccc3c(c2)OC[C@H]2[C@H](CO)OC(=O)N32)cn1 [Compound 7, (3R,3aS)-3-(hydroxylmethyl)-7-(6-(2-hydroxylpropyl-2-yl)pyridin-3-yl)-3a,4-dihydrobenzo[b]oxazolo[3,4-d][1,4]oxazin-1(3H)-one]
MIC [1]: 1 to 4 µg/mL (≈ 2.81 to 11.2 µM) | MIC [2]: 1 to 4 µg/mL (≈ 2.81 to 11.2 µM) | MIC [3]: 2 µg/mL (≈ 5.61 µM) | MIC [4]: 4 µg/mL (≈ 11.2 µM) | MIC [5]: 1 to 4 µg/mL (≈ 2.81 to 11.2 µM) | MIC [6]: 2 to 4 µg/mL (≈ 5.61 to 11.2 µM)

CC(O)c1ccc(-c2ccc3c(c2)OC[C@H]2[C@H](CO)OC(=O)N32)cn1 (stereo partly drawn) [Compound 8, (3R,3aS)-7-(6-(1-hydroxylethyl)pyridin-3-yl)-3-(hydroxylmethyl)-3a,4-dihydrobenzo[b]oxazolo[3,4-d][1,4]oxazin-1(3H)-one]
MIC [1]: 1 µg/mL (≈ 2.92 µM) | MIC [2]: 1 to 2 µg/mL (≈ 2.92 to 5.84 µM) | MIC [3]: 1 to 2 µg/mL (≈ 2.92 to 5.84 µM) | MIC [4]: 2 to 4 µg/mL (≈ 5.84 to 11.7 µM) | MIC [5]: 1 to 2 µg/mL (≈ 2.92 to 5.84 µM) | MIC [6]: 2 to 4 µg/mL (≈ 5.84 to 11.7 µM)

O=C1O[C@@H](CO)[C@@H]2COc3cc(-c4ccc(CO)nc4)ccc3N12 [Compound 9, (3R,3aS)-3-(hydroxylmethyl)-7-(6-(hydroxylmethyl)pyridin-3-yl)-3a,4-dihydrobenzo[b]oxazolo[3,4-d][1,4]oxazin-1(3H)-one]
MIC [1]: 0.5 µg/mL (≈ 1.52 µM) | MIC [2]: 1 to 2 µg/mL (≈ 3.05 to 6.09 µM) | MIC [3]: 0.5 to 1 µg/mL (≈ 1.52 to 3.05 µM) | MIC [4]: 4 µg/mL (≈ 12.2 µM) | MIC [5]: 1 to 2 µg/mL (≈ 3.05 to 6.09 µM) | MIC [6]: 2 to 4 µg/mL (≈ 6.09 to 12.2 µM)

O=C1O[C@@H](CO)[C@@H]2COc3cc(-c4ccc(C5(O)CCCC5)nc4)ccc3N12 [Compound 10, (3R,3aS)-7-(6-(1-hydroxylcyclopentyl)pyridin-3-yl)-3-(hydroxylmethyl)-3a,4-dihydrobenzo[b]oxazolo[3,4-d][1,4]oxazin-1(3H)-one]
MIC [1]: 1 to 2 µg/mL (≈ 2.61 to 5.23 µM) | MIC [2]: 1 to 2 µg/mL (≈ 2.61 to 5.23 µM) | MIC [3]: 1 to 2 µg/mL (≈ 2.61 to 5.23 µM) | MIC [4]: 2 to 4 µg/mL (≈ 5.23 to 10.5 µM) | MIC [5]: 2 µg/mL (≈ 5.23 µM) | MIC [6]: 2 µg/mL (≈ 5.23 µM)

CN1CCN(c2ccc(-c3ccc4c(c3)OC[C@H]3[C@H](CO)OC(=O)N43)cn2)CC1 [Compound 12, (3R,3aS)-3-(hydroxylmethyl)7-(6-(4-methylpiperazin-1-yl)pyridin-3-yl)-3a,4-dihydrobenzo[b]oxazolo[3,4-d][1,4]oxazin-1(3H)-one]
MIC [1]: 2 to 4 µg/mL (≈ 5.04 to 10.1 µM) | MIC [2]: 4 to 8 µg/mL (≈ 10.1 to 20.2 µM) | MIC [3]: 4 µg/mL (≈ 10.1 µM) | MIC [4]: 2 to 4 µg/mL (≈ 5.04 to 10.1 µM) | MIC [5]: 2 to 4 µg/mL (≈ 5.04 to 10.1 µM) | MIC [6]: 4 µg/mL (≈ 10.1 µM)

CC(C)N1CC(c2ccc(-c3ccc4c(c3)OC[C@H]3[C@H](CO)OC(=O)N43)cn2)OC1=O (stereo partly drawn) [Compound 15, (3R,3aS)-3-(hydroxylmethyl)-7-(6-(3-isopropyl-2-oxazolidin-5-yl)pyridin-3-yl)-3a,4-dihydrobenzo[b]oxazolo[3,4-d][1,4]oxazin-1(3H)-one]
MIC [1]: 1 to 2 µg/mL (≈ 2.35 to 4.7 µM) | MIC [2]: 1 to 2 µg/mL (≈ 2.35 to 4.7 µM) | MIC [3]: 2 to 4 µg/mL (≈ 4.7 to 9.4 µM) | MIC [4]: 1 to 2 µg/mL (≈ 2.35 to 4.7 µM) | MIC [5]: 1 to 2 µg/mL (≈ 2.35 to 4.7 µM) | MIC [6]: 2 µg/mL (≈ 4.7 µM)

O=C1OC(c2ccc(-c3ccc4c(c3)OC[C@H]3[C@H](CO)OC(=O)N43)cn2)CN1Cc1ccccc1 (stereo partly drawn) [Compound 16, (3R,3aS)-7-(6-(3-benzyl-2-oxazolidin-5-yl)pyridin-3-yl)-3-(hydroxylmethyl)-3a,4-dihydrobenzo[b]oxazolo[3,4-d][1,4]oxazin-1(3H)-one]
MIC [1]: 1 to 2 µg/mL (≈ 2.11 to 4.22 µM) | MIC [2]: 1 to 2 µg/mL (≈ 2.11 to 4.22 µM) | MIC [3]: 2 to 4 µg/mL (≈ 4.22 to 8.45 µM) | MIC [4]: 1 to 2 µg/mL (≈ 2.11 to 4.22 µM) | MIC [5]: 1 to 2 µg/mL (≈ 2.11 to 4.22 µM) | MIC [6]: 2 µg/mL (≈ 4.22 µM)

Cn1nnc(-c2ccc(-c3ccc4c(c3)OC[C@H]3[C@H](CO)OC(=O)N43)cn2)n1 [Compound 17, (3R,3aS)-3-(hydroxylmethyl)-7-(6-(2-methyl-2H-tetrazol-5-yl)pyridin-3-yl)-3a,4-dihydrobenzo[b]oxazolo[3,4-d][1,4]oxazin-1(3H)-one]
MIC [1]: 1 to 2 µg/mL (≈ 2.63 to 5.26 µM) | MIC [2]: 1 to 2 µg/mL (≈ 2.63 to 5.26 µM) | MIC [3]: 1 to 2 µg/mL (≈ 2.63 to 5.26 µM) | MIC [4]: 4 µg/mL (≈ 10.5 µM) | MIC [5]: 1 to 4 µg/mL (≈ 2.63 to 10.5 µM) | MIC [6]: 1 to 2 µg/mL (≈ 2.63 to 5.26 µM)

O=C1COCCN1c1ccc(-c2ccc3c(c2)OC[C@H]2[C@H](CO)OC(=O)N32)cn1 [Compound 19, (3R,3aS)-3-(hydroxylmethyl)-7-(6-(3-oxomorpholin)pyridin-3-yl)-3a,4-dihydrobenzo[b]oxazolo[3,4-d][1,4]oxazin-1(3H)-one]
MIC [1]: 1 to 2 µg/mL (≈ 2.52 to 5.03 µM) | MIC [2]: 2 to 4 µg/mL (≈ 5.03 to 10.1 µM) | MIC [3]: 2 to 4 µg/mL (≈ 5.03 to 10.1 µM) | MIC [4]: 2 to 4 µg/mL (≈ 5.03 to 10.1 µM) | MIC [5]: 2 to 4 µg/mL (≈ 5.03 to 10.1 µM) | MIC [6]: 2 to 4 µg/mL (≈ 5.03 to 10.1 µM)

CN1CCN(c2ccc(-c3ccc4c(c3)OC[C@H]3[C@H](CO)OC(=O)N43)cn2)C(=O)C1 [Compound 20, (3R,3aS)-3-(hydroxylmethyl)-7-(6-(4-methyl-2-oxopiperazin-1-yl)pyridin-3-yl)-3a,4-dihydrobenzo[b]oxazolo[3,4-d][1,4]oxazin-1(3H)-one]
MIC [1]: 2 to 4 µg/mL (≈ 4.87 to 9.75 µM) | MIC [2]: 2 to 4 µg/mL (≈ 4.87 to 9.75 µM) | MIC [3]: 2 to 4 µg/mL (≈ 4.87 to 9.75 µM) | MIC [4]: 16 to 32 µg/mL (≈ 39 to 78 µM) | MIC [5]: 2 to 4 µg/mL (≈ 4.87 to 9.75 µM) | MIC [6]: 4 to 8 µg/mL (≈ 9.75 to 19.5 µM)

O=C1OC(CO)CN1c1ccc(-c2ccc3c(c2)OC[C@H]2[C@H](CO)OC(=O)N32)cn1 (stereo partly drawn) [Compound 24, (3R,3aS)-3-(hydroxylmethyl)-7-(6-(5-(hydroxylmethyl)-2-oxooxazolidin-3-yl)pyridin-3-yl)-3a,4-dihydrobenzo[b]oxazolo[3,4-d][1,4]oxazin-1(3H)-one]
MIC [1]: 0.25 to 0.5 µg/mL (≈ 0.605 to 1.21 µM) | MIC [2]: 0.5 to 1 µg/mL (≈ 1.21 to 2.42 µM) | MIC [3]: 0.5 to 1 µg/mL (≈ 1.21 to 2.42 µM) | MIC [4]: 0.5 to 1 µg/mL (≈ 1.21 to 2.42 µM) | MIC [5]: 0.5 to 1 µg/mL (≈ 1.21 to 2.42 µM) | MIC [6]: 1 µg/mL (≈ 2.42 µM)

O=C1O[C@H](CO)CN1c1ccc(-c2ccc3c(c2)OC[C@H]2[C@H](CO)OC(=O)N32)cn1 [Compound 25, (3R,3S)-3-(hydroxylmethyl)-7-(6-((S)-5-(hydroxylmethyl)-2-oxooxazolidin-3-yl)pyridin-3-yl)-3a,4-dihydrobenzo[b]oxazolo[3,4-d][1,4]oxazin-1(3H)-one]
MIC [1]: 0.5 to 1 µg/mL (≈ 1.21 to 2.42 µM) | MIC [2]: 0.5 to 1 µg/mL (≈ 1.21 to 2.42 µM) | MIC [3]: 0.5 to 1 µg/mL (≈ 1.21 to 2.42 µM) | MIC [4]: 0.5 to 1 µg/mL (≈ 1.21 to 2.42 µM) | MIC [5]: 0.5 to 1 µg/mL (≈ 1.21 to 2.42 µM) | MIC [6]: 1 µg/mL (≈ 2.42 µM)

O=C1O[C@@H](CO)CN1c1ccc(-c2ccc3c(c2)OC[C@H]2[C@H](CO)OC(=O)N32)cn1 [Compound 26, (3R,3aS)-3-(hydroxylmethyl)-7-(6-((R)-5-(hydroxylmethyl)-2-oxo-oxazolidin-3-yl)pyridin-3-yl)-3a,4-dihydrobenzo[b]oxazolo[3,4-d][1,4]oxazin-1(3H)-one]
MIC [1]: 0.5 to 1 µg/mL (≈ 1.21 to 2.42 µM) | MIC [2]: 0.5 to 1 µg/mL (≈ 1.21 to 2.42 µM) | MIC [3]: 0.5 to 1 µg/mL (≈ 1.21 to 2.42 µM) | MIC [4]: 0.5 to 1 µg/mL (≈ 1.21 to 2.42 µM) | MIC [5]: 0.5 to 1 µg/mL (≈ 1.21 to 2.42 µM) | MIC [6]: 1 µg/mL (≈ 2.42 µM)

CN1C[C@@H](c2ccc(-c3ccc4c(c3)OC[C@H]3[C@H](CO)OC(=O)N43)cn2)OC1=O [Compound 27, (3R,3aS)-3-(hydroxylmethyl)-7-(6-((R)-3-methyl-2-oxazolidin-5-yl)pyridin-3-yl)-3a,4-dihydrobenzo[b]oxazolo[3,4-d][1,4]oxazin-1(3H)-one]
MIC [1]: 1 µg/mL (≈ 2.52 µM) | MIC [2]: 1 µg/mL (≈ 2.52 µM) | MIC [3]: 0.5 to 1 µg/mL (≈ 1.26 to 2.52 µM) | MIC [4]: 1 µg/mL (≈ 2.52 µM) | MIC [5]: 1 µg/mL (≈ 2.52 µM) | MIC [6]: 0.25 to 0.5 µg/mL (≈ 0.629 to 1.26 µM)

CN1C[C@H](c2ccc(-c3ccc4c(c3)OC[C@H]3[C@H](CO)OC(=O)N43)cn2)OC1=O [Compound 28, (3R,3aS)-3-(hydroxylmethyl)-7-(6-((S)-3-methyl-2-oxazolidin-5-yl)pyridin-3-yl)-3a,4-dihydrobenzo[b]oxazolo[3,4-d][1,4]oxazin-1(3H)-one]
MIC [1]: 2 µg/mL (≈ 5.03 µM) | MIC [2]: 2 µg/mL (≈ 5.03 µM) | MIC [3]: 1 to 2 µg/mL (≈ 2.52 to 5.03 µM) | MIC [4]: 2 µg/mL (≈ 5.03 µM) | MIC [5]: 2 µg/mL (≈ 5.03 µM) | MIC [6]: 2 µg/mL (≈ 5.03 µM)
